Tests used:
[1] = biological target: T1, PK2 EFE (Pseudomonas savastanoi, UniProt P32021); conditions: 1 mM 2OG, 1 mM L-Arg, 0.4 mM Fe(II), 1 mM L-ascorbate, 25 mM HEPES pH 7.5, room temperature
[2] = biological target: T1, PK2 EFE; experiment: succinate production by LC-MS/MS versus 2OG concentration; assay type: biochemical; set-up: recombinant from E. coli, His6 tag removed with TEV protease, apoprotein after EDTA/DTT treatment; conditions: no L-Arg (uncoupled decarboxylation), 0.2 mM Fe(II), 0.4 mM L-ascorbate, 25 mM HEPES pH 7.5, 22 °C

T1 sequence (P32021 whole entry): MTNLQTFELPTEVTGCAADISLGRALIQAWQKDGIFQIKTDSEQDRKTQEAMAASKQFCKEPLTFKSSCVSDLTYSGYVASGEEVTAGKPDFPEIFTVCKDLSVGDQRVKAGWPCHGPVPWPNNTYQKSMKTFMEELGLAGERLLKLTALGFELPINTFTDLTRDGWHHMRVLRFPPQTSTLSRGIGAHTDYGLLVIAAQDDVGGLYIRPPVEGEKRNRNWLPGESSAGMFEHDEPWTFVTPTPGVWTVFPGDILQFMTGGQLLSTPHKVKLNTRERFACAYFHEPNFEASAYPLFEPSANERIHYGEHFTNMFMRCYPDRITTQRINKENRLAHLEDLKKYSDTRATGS

Row | Compound | ethylene by GC and P5C by 2-aminobenzaldehyde assay (partition ratio) [1] | succinate production by LC-MS/MS versus 2OG concentration [2]
1 | N=C(N)NCCC[C@H](N)C(=O)O [L-Arg] | we compared the ethylene/P5C partition ratios for PK2 EFE and Pd1 EFE | 
2 | O=C(O)CCC(=O)C(=O)O [2OG] |  | such an uncoupled reaction occurs in both Pd1 and PK2 versions of EFE

From PMC12060275, “Biochemical, Structural, and Conformational Characterization of a Fungal Ethylene-Forming Enzyme” (Biochemistry, 2025)
